# Data from patent US12029748B2, “Synergistic composition for maintenance of healthy balance of microflora” (KIMBERLY-CLARK WORLDWIDE, INC., priority 2017, dated 2024).
# Where a SMILES comes first, the peptide text is derived from it.
# Tested on: L. crispatus and E. coli
# Test: Therapeutic Effect Protocol: L. crispatus / E. coli co-culture, ratio after 36 hours
# Format: cell-based, Lactobacillus crispatus; E. coli
# Conditions: nitrogen compound 0.10 wt/vol % with 1.0 wt/vol % α methyl-D glucoside (10:1); 36 hours anaerobic co-culture, 37° C.
# Procedure, shortened: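 L. crispatus and E. coli were mixed 1,000:1 (10^5-10^6 and 100-1,000 CFU per 5 mL tube) in LAPT-g medium at pH 6.5, containing 1% α-methyl-D-glucoside plus nitrogen compound at 0.1-1% w/v, in duplicate. After 36 h anaerobic incubation at 37 °C, each species was counted by selective plating (MRS anaerobic, TSA aerobic), and the L. crispatus:E. coli ratio and final pH were recorded.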
row,SMILES,Therapeutic Efficacy Results (Lactobacillus/E. coli) 0.10%
1,CC(=O)N[C@H]1C(O)O[C@H](CO)[C@@H](O)[C@@H]1O (stereo partly drawn) [N-Acetyl-D-Glucosamine],8.33
2,NC(=O)CC[C@H](N)C(=O)O [L-Glutamine],>161
3,c1cncnc1 [Pyrimidine],245
4,Cl.N[C@H]1C(O)O[C@H](CO)[C@H](O)[C@@H]1O (stereo partly drawn) [D-Galactosamine HCL],6.72
5,CC(=O)N[C@H]1C(O)O[C@H](CO)[C@H](O)[C@@H]1O (stereo partly drawn) [N-Acetyl-D-Galactosamine],130
6,NCC(=O)N[C@@H](CCC(N)=O)C(=O)O.O [Gly-Gln] (H-Gly-Gln-OH),8.57
7,C[C@H](NC(=O)CN)C(=O)O [Glycyl-Alanine] (H-Gly-Ala-OH),0.803
8,Cl.N[C@@H]1C(O)O[C@H](CO)[C@@H](O)[C@@H]1O (stereo partly drawn) [D-mannosamine HCl],0.202

# Same assay, conditions: nitrogen compound 0.50 wt/vol % with 1.0 wt/vol % α methyl-D glucoside (2:1); 36 hours anaerobic co-culture, 37° C.
row,SMILES,Therapeutic Efficacy Results (Lactobacillus/E. coli) 0.50%
1,CC(=O)N[C@H]1C(O)O[C@H](CO)[C@@H](O)[C@@H]1O (stereo partly drawn) [N-Acetyl-D-Glucosamine],211
2,NC(=O)CC[C@H](N)C(=O)O [L-Glutamine],1.28
3,c1cncnc1 [Pyrimidine],>4760
4,Cl.N[C@H]1C(O)O[C@H](CO)[C@H](O)[C@@H]1O (stereo partly drawn) [D-Galactosamine HCL],>1220
5,CC(=O)N[C@H]1C(O)O[C@H](CO)[C@H](O)[C@@H]1O (stereo partly drawn) [N-Acetyl-D-Galactosamine],>100
6,NCC(=O)N[C@@H](CCC(N)=O)C(=O)O.O [Gly-Gln] (H-Gly-Gln-OH),>189
7,C[C@H](NC(=O)CN)C(=O)O [Glycyl-Alanine] (H-Gly-Ala-OH),220
8,Cl.N[C@@H]1C(O)O[C@H](CO)[C@@H](O)[C@@H]1O (stereo partly drawn) [D-mannosamine HCl],84

# Same assay, conditions: nitrogen compound 1.00 wt/vol % with 1.0 wt/vol % α methyl-D glucoside (1:1); 36 hours anaerobic co-culture, 37° C.
row,SMILES,Therapeutic Efficacy Results (Lactobacillus/E. coli) 1.00%
1,CC(=O)N[C@H]1C(O)O[C@H](CO)[C@@H](O)[C@@H]1O (stereo partly drawn) [N-Acetyl-D-Glucosamine],7.00E+06
2,NC(=O)CC[C@H](N)C(=O)O [L-Glutamine],0.53
3,c1cncnc1 [Pyrimidine],4.05
4,Cl.N[C@H]1C(O)O[C@H](CO)[C@H](O)[C@@H]1O (stereo partly drawn) [D-Galactosamine HCL],1.29
5,CC(=O)N[C@H]1C(O)O[C@H](CO)[C@H](O)[C@@H]1O (stereo partly drawn) [N-Acetyl-D-Galactosamine],0.65
6,NCC(=O)N[C@@H](CCC(N)=O)C(=O)O.O [Gly-Gln] (H-Gly-Gln-OH),0.38
7,C[C@H](NC(=O)CN)C(=O)O [Glycyl-Alanine] (H-Gly-Ala-OH),1.49
8,Cl.N[C@@H]1C(O)O[C@H](CO)[C@@H](O)[C@@H]1O (stereo partly drawn) [D-mannosamine HCl],0.96

# Same assay, conditions: with α methyl-D glucoside; nitrogen compound 1 wt/vol %, 0.5 wt/vol % and 0.1 wt/vol %
row,SMILES,Therapeutic effect (ratio of Lactobacillus to E. coli greater than 2) at each concentration tested
1,CC(=O)N[C@H]1C(O)O[C@H](CO)[C@@H](O)[C@@H]1O (stereo partly drawn) [N-Acetyl-D-Glucosamine],provided a therapeutic effect
2,c1cncnc1 [Pyrimidine],provided a therapeutic effect

# Same assay, conditions: with α methyl-D glucoside; ratio 1:1
row,SMILES,Therapeutic effect when ratio α methyl-D glucoside : nitrogen compound is less than 2:1 (1:1)
1,CC(=O)N[C@H]1C(O)O[C@H](CO)[C@@H](O)[C@@H]1O (stereo partly drawn) [N-Acetyl-D-Glucosamine],provided a therapeutic effect
2,c1cncnc1 [Pyrimidine],provided a therapeutic effect

# Same assay, conditions: with α methyl-D glucoside; ratio at least about 2:1, not 1:1
row,SMILES,"Therapeutic effect when ratio α methyl-D glucoside : nitrogen compound is at least about 2:1, but not at 1:1"
1,NC(=O)CC[C@H](N)C(=O)O [L-Glutamine],provided a therapeutic effect
2,Cl.N[C@H]1C(O)O[C@H](CO)[C@H](O)[C@@H]1O (stereo partly drawn) [D-Galactosamine HCL],provided a therapeutic effect
3,CC(=O)N[C@H]1C(O)O[C@H](CO)[C@H](O)[C@@H]1O (stereo partly drawn) [N-Acetyl-D-Galactosamine],provided a therapeutic effect
4,NCC(=O)N[C@@H](CCC(N)=O)C(=O)O.O [Gly-Gln] (H-Gly-Gln-OH),provided a therapeutic effect
5,C[C@H](NC(=O)CN)C(=O)O [Glycyl-Alanine] (H-Gly-Ala-OH),provided a therapeutic effect
6,Cl.N[C@@H]1C(O)O[C@H](CO)[C@@H](O)[C@@H]1O (stereo partly drawn) [D-mannosamine HCl],provided a therapeutic effect

# Same assay, conditions: with α methyl-D glucoside; ratios 2:1 and 10:1, not 1:1
row,SMILES,"Therapeutic effect at ratio 2:1 and 10:1, but not at 1:1"
1,Cl.N[C@H]1C(O)O[C@H](CO)[C@H](O)[C@@H]1O (stereo partly drawn) [D-Galactosamine HCL],provided a therapeutic effect
2,CC(=O)N[C@H]1C(O)O[C@H](CO)[C@H](O)[C@@H]1O (stereo partly drawn) [N-Acetyl-D-Galactosamine],provided a therapeutic effect
3,NCC(=O)N[C@@H](CCC(N)=O)C(=O)O.O [Gly-Gln] (H-Gly-Gln-OH),provided a therapeutic effect

# Tested on: not listed separately
# Test: Initial pH screening of the composition
# Format: physicochemical
# Conditions: nitrogen compound 0.10 wt/vol % with 1.0 wt/vol % α methyl-D glucoside in medium
# Procedure, shortened: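 Compounds were added to LAPT-g medium (pH adjusted to 6.5) at a final 0.1-1.0%. Solubility was judged visually by precipitate or turbidity, and insoluble compositions got no pH measurement. Initial pH was scored Low (<5.5), High (>6.5) or Pass (5.5-6.5), and only soluble Pass compositions went on to efficacy testing.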
row,SMILES,"I pH (initial pH), 0.10%"
1,CC(=O)N[C@H]1C(O)O[C@H](CO)[C@@H](O)[C@@H]1O (stereo partly drawn) [N-Acetyl-D-Glucosamine],P (a Pass initial pH corresponds to the pH being at or between 5.5-6.5)
2,NC(=O)CC[C@H](N)C(=O)O [L-Glutamine],P (a Pass initial pH corresponds to the pH being at or between 5.5-6.5)
3,c1cncnc1 [Pyrimidine],P (a Pass initial pH corresponds to the pH being at or between 5.5-6.5)
4,Cl.N[C@H]1C(O)O[C@H](CO)[C@H](O)[C@@H]1O (stereo partly drawn) [D-Galactosamine HCL],P (a Pass initial pH corresponds to the pH being at or between 5.5-6.5)
5,CC(=O)N[C@H]1C(O)O[C@H](CO)[C@H](O)[C@@H]1O (stereo partly drawn) [N-Acetyl-D-Galactosamine],P (a Pass initial pH corresponds to the pH being at or between 5.5-6.5)
6,NCC(=O)N[C@@H](CCC(N)=O)C(=O)O.O [Gly-Gln] (H-Gly-Gln-OH),P (a Pass initial pH corresponds to the pH being at or between 5.5-6.5)
7,C[C@H](NC(=O)CN)C(=O)O [Glycyl-Alanine] (H-Gly-Ala-OH),P (a Pass initial pH corresponds to the pH being at or between 5.5-6.5)
8,Cl.N[C@@H]1C(O)O[C@H](CO)[C@@H](O)[C@@H]1O (stereo partly drawn) [D-mannosamine HCl],P (a Pass initial pH corresponds to the pH being at or between 5.5-6.5)

# Same assay, conditions: nitrogen compound 0.50 wt/vol % with 1.0 wt/vol % α methyl-D glucoside in medium
row,SMILES,"I pH (initial pH), 0.50%"
1,CC(=O)N[C@H]1C(O)O[C@H](CO)[C@@H](O)[C@@H]1O (stereo partly drawn) [N-Acetyl-D-Glucosamine],P (a Pass initial pH corresponds to the pH being at or between 5.5-6.5)
2,NC(=O)CC[C@H](N)C(=O)O [L-Glutamine],P (a Pass initial pH corresponds to the pH being at or between 5.5-6.5)
3,c1cncnc1 [Pyrimidine],P (a Pass initial pH corresponds to the pH being at or between 5.5-6.5)
4,Cl.N[C@H]1C(O)O[C@H](CO)[C@H](O)[C@@H]1O (stereo partly drawn) [D-Galactosamine HCL],P (a Pass initial pH corresponds to the pH being at or between 5.5-6.5)
5,CC(=O)N[C@H]1C(O)O[C@H](CO)[C@H](O)[C@@H]1O (stereo partly drawn) [N-Acetyl-D-Galactosamine],P (a Pass initial pH corresponds to the pH being at or between 5.5-6.5)
6,NCC(=O)N[C@@H](CCC(N)=O)C(=O)O.O [Gly-Gln] (H-Gly-Gln-OH),P (a Pass initial pH corresponds to the pH being at or between 5.5-6.5)
7,C[C@H](NC(=O)CN)C(=O)O [Glycyl-Alanine] (H-Gly-Ala-OH),P (a Pass initial pH corresponds to the pH being at or between 5.5-6.5)
8,Cl.N[C@@H]1C(O)O[C@H](CO)[C@@H](O)[C@@H]1O (stereo partly drawn) [D-mannosamine HCl],P (a Pass initial pH corresponds to the pH being at or between 5.5-6.5)

# Same assay, conditions: nitrogen compound 1.00 wt/vol % with 1.0 wt/vol % α methyl-D glucoside in medium
row,SMILES,"I pH (initial pH), 1.00%"
1,CC(=O)N[C@H]1C(O)O[C@H](CO)[C@@H](O)[C@@H]1O (stereo partly drawn) [N-Acetyl-D-Glucosamine],P (a Pass initial pH corresponds to the pH being at or between 5.5-6.5)
2,NC(=O)CC[C@H](N)C(=O)O [L-Glutamine],P (a Pass initial pH corresponds to the pH being at or between 5.5-6.5)
3,c1cncnc1 [Pyrimidine],P (a Pass initial pH corresponds to the pH being at or between 5.5-6.5)
4,Cl.N[C@H]1C(O)O[C@H](CO)[C@H](O)[C@@H]1O (stereo partly drawn) [D-Galactosamine HCL],P (a Pass initial pH corresponds to the pH being at or between 5.5-6.5)
5,CC(=O)N[C@H]1C(O)O[C@H](CO)[C@H](O)[C@@H]1O (stereo partly drawn) [N-Acetyl-D-Galactosamine],P (a Pass initial pH corresponds to the pH being at or between 5.5-6.5)
6,NCC(=O)N[C@@H](CCC(N)=O)C(=O)O.O [Gly-Gln] (H-Gly-Gln-OH),P (a Pass initial pH corresponds to the pH being at or between 5.5-6.5)
7,C[C@H](NC(=O)CN)C(=O)O [Glycyl-Alanine] (H-Gly-Ala-OH),P (a Pass initial pH corresponds to the pH being at or between 5.5-6.5)
8,Cl.N[C@@H]1C(O)O[C@H](CO)[C@@H](O)[C@@H]1O (stereo partly drawn) [D-mannosamine HCl],P (a Pass initial pH corresponds to the pH being at or between 5.5-6.5)
